Laboratory results from ChEMBL document CHEMBL1201862, “PubChem BioAssay data set” (2004).
Calls of active or inactive are those of the source.

Assays:
[1] = target: Nonstructural protein 1 (Influenza A virus, UniProt Q194T2); type: functional, Influenza A virus (A/California/07/2009(H1N1))
[2] = viability of uninfected HEp-2 cells – cell-based, HTS, cytotoxicity control for RSV inhibitor project, dose response (AID 2410); type: functional; conditions: human respiratory syncytial virus
[3] = viability of PTEN-deleted HCT116 cells – cell-based, HCT116 PTEN knockout, dose response (AID 1047); type: functional;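 note: HCT116 colon tumor cells with PTEN knocked out; cells exposed to compound for 60 hours before readout; potency for loss of cell viability measured by luminescence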
[4] = target: Induced myeloid leukemia cell differentiation protein Mcl-1 (Homo sapiens, UniProt Q07820); type: functional
Induced myeloid leukemia cell differentiation protein Mcl-1, sequence (Q07820 whole entry): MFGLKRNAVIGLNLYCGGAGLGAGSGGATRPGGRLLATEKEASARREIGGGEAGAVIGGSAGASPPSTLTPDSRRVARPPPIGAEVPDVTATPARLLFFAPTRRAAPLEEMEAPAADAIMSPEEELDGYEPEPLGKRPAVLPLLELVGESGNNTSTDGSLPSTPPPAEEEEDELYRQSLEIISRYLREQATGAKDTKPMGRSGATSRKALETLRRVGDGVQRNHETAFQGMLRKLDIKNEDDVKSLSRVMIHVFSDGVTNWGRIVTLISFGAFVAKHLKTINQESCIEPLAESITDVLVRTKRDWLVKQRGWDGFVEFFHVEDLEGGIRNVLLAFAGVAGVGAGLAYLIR

[5] = viability of HCT116 lacking mutant beta-catenin – cell-based, human colon tumor, dose response (AID 1045); type: functional;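 note: HCT116 colon tumor cells with beta catenin knocked out; cells exposed to compound for 60 hours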
[6] = target: T1, Heat shock factor protein 1 (Mus musculus, UniProt P38532); assay: enhancement of HSF1-driven luciferase signal – cell-based, NIH3T3, luminescence, dose retest, confirmation (AID 435004); type: functional;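 note: stress induced by proteasome inhibitor MG132 added 30 min after compound; luciferase reporter driven by HSF1 response element in NIH3T3 cells; actives raise luminescence as potentiators of the MG132 stress response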
T1 sequence (P38532 whole entry): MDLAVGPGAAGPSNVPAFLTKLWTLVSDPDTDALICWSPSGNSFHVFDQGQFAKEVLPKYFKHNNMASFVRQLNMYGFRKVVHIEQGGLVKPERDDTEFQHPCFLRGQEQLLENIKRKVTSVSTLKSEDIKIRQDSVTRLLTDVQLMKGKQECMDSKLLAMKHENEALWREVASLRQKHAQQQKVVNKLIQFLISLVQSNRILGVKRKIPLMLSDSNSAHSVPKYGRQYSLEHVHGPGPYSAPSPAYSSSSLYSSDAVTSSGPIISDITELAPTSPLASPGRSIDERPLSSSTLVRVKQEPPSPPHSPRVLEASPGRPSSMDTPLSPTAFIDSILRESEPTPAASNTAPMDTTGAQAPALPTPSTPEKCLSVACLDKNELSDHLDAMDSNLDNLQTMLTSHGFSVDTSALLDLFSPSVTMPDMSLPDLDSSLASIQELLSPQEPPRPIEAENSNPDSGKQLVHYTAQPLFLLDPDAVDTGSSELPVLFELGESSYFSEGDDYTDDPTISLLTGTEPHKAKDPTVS

[7] = Luminescence Cell-Based Dose Confirmation HTS to Identify Inhibitors of Platelet Dense Granule Release. [Related pubchem assays: 1663 (Primary HTS), 1678 (Summary of Project)]; type: functional
[8] = target: Luciferin 4-monooxygenase (Photinus pyralis, UniProt P08659); assay: inhibition of purified Photinus pyralis luciferase – biochemical, luminescence, dose response (AID 1891)
Luciferin 4-monooxygenase, sequence (P08659 whole entry): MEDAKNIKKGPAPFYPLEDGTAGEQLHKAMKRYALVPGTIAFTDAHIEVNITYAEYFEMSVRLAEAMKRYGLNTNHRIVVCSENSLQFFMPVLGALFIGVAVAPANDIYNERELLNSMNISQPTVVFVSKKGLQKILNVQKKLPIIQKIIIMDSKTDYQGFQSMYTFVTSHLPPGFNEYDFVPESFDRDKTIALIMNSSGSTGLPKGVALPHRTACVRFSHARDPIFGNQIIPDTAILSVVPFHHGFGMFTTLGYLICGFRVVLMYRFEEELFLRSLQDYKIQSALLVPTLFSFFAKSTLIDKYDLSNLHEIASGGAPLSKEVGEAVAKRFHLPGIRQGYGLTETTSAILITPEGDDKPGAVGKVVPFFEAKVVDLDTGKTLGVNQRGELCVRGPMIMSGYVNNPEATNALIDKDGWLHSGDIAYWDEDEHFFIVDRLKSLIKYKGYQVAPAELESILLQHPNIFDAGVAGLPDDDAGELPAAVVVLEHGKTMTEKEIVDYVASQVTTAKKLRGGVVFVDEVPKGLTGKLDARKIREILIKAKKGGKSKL

[9] = tested on: H9c2; assay: cells; type: functional, cell-based; conditions: Rattus norvegicus, H9c2, Myocardium;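 note: confirmatory concentration-response retest of ultra-high-throughput screening hits for modulation of myocardial damage; cell death induced by hydrogen peroxide oxidative stress; compound pretreatment for 60 min then peroxide exposure for 2 h; potency is for protecting the cells against peroxide damage rather than for killing them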
[10] = microbe, parasite or virus in culture; type: functional; conditions: Mycobacterium tuberculosis
[11] = target: Genome polyprotein (dengue virus type 2, UniProt P29990); assay: flavivirus cap methylation enzyme inhibition – biochemical, confirmation dose response, primary screen (AID 588689); type: functional
Genome polyprotein, sequence (P29990 2492-3391 limits assumed): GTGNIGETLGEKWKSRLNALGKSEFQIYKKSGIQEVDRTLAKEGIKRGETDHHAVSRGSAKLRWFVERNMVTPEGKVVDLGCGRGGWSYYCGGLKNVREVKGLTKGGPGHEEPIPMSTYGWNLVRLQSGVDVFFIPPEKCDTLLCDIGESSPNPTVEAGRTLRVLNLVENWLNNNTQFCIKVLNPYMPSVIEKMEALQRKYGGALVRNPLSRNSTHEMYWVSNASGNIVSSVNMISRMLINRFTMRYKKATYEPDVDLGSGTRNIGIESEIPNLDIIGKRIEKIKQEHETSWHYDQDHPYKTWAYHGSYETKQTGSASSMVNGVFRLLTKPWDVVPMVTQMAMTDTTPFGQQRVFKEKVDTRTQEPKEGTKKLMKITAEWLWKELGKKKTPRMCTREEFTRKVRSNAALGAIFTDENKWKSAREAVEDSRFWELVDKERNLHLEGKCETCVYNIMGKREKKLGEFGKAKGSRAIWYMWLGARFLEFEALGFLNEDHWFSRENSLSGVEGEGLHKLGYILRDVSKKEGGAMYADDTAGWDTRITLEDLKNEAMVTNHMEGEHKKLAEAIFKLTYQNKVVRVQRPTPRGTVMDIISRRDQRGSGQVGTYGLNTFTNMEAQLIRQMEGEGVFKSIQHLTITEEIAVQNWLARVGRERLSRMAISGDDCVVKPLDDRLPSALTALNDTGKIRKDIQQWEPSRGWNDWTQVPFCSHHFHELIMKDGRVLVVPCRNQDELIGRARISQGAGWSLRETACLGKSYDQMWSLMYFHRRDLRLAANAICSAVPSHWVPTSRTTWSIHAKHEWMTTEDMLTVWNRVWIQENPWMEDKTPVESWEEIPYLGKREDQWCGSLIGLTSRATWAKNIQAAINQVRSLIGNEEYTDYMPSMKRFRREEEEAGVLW

[12] = target: T2, Small ubiquitin-related modifier 1 (Homo sapiens, UniProt P63165); assay: SUMO1 protein-protein binding blockers, potency – biochemical, FRET, dose response (AID 624383); type: functional; conditions: read-out: IC50_Mean
T2 sequence (P63165 whole entry): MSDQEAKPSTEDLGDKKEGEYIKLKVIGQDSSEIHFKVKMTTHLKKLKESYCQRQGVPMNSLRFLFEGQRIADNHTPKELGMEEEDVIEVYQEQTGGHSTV

[13] = target: T2, Small ubiquitin-related modifier 1; assay: SUMO1 protein interaction blockers, potency – biochemical, fluorescence polarization, uHTS hits, dose response (AID 624382); type: functional; conditions: read-out: IC50_Mean
[14] = Trypanosoma cruzi growth suppression in host cells – NIH3T3 host cells, beta-gal luminescence, confirmation (AID 2044); type: functional, cell-based;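 note: intracellular parasites grown in NIH/3T3 mouse fibroblasts as host cells; luminescent beta-galactosidase reporter signal from transgenic T. cruzi replicating inside host cells; inhibitors lower the luminescence signal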
[15] = NIH3T3 cell viability loss – ATP luminescence, mouse fibroblasts, counter-screen, dose response (AID 2010); type: functional, cell-based;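 note: cells exposed to compound for about 90 hours before reading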
[16] = target: T3, Aminopeptidase N (Plasmodium falciparum FcB1/Columbia, UniProt O96935); assay: malaria alanyl aminopeptidase activity blockers – biochemical, fluorogenic H-Leu-NHMec substrate, 1536-well (AID 1445); parameters: species or system Plasmodium falciparum 3D7, 3D7
T3 sequence (O96935 whole entry): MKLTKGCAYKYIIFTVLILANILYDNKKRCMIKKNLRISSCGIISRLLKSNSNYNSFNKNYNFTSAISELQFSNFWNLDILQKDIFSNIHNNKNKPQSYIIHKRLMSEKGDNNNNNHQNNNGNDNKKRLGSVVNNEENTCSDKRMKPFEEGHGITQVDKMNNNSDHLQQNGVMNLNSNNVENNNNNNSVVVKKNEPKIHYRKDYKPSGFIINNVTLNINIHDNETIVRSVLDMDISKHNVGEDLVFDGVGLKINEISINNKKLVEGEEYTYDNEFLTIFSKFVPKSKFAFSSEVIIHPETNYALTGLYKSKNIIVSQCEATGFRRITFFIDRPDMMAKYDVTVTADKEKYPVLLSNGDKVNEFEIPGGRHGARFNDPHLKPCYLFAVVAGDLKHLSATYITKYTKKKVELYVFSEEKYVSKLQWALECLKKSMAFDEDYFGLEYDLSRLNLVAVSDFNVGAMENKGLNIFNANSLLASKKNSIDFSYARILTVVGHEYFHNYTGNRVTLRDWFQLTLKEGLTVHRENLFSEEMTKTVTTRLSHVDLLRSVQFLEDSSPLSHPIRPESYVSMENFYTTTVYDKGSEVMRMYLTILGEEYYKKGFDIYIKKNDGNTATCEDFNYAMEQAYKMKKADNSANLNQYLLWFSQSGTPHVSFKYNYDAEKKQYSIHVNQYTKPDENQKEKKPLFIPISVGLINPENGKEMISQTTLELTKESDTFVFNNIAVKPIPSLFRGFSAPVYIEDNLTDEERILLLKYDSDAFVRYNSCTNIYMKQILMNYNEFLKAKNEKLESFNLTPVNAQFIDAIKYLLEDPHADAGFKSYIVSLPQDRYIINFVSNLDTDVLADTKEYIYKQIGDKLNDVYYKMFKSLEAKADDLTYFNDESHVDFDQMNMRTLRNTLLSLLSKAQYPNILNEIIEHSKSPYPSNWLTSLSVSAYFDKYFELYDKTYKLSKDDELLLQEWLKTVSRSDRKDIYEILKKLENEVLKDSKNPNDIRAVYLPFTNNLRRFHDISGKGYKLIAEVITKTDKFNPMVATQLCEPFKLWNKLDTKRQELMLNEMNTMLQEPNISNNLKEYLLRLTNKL

[17] = target: Heat shock protein HSP 90-alpha (Homo sapiens, UniProt P07900); type: functional, organism-based

Nonstructural protein 1, sequence (Q194T2 whole entry): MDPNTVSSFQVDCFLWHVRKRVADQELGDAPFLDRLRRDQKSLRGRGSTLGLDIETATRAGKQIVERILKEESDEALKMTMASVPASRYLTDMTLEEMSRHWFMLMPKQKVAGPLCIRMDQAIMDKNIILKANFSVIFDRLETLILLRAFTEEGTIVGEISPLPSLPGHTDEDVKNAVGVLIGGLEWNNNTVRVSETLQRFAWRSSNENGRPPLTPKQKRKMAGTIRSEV

For CN1C(=S)N(c2cccnc2)C(=O)/C1=C\c1ccc(N(C)C)cc1, the IC50 [1] was > 100 µM (active).

With COC(=O)C(NC(=O)c1ccccc1C)(Nc1ncc(S(=O)(=O)c2ccc([N+](=O)[O-])cc2)s1)C(F)(F)F (stereo unspecified) the CC50 [2] was 12.4 µM (active).

For O=C(Nc1nccs1)c1cccc(N2C(=O)c3cccc4c([N+](=O)[O-])ccc(c34)C2=O)c1, the EC50 [3] was 3.77 µM (active), the IC50 [4] was 1.45 µM (not active) and the EC50 [5] was 2.23 µM (active). For the same compound, the EC50 [6] was 8.49 µM (active).

For Cc1cccc(N=C(S)NCc2ccncc2)c1C, the EC50 [7] was > 112 µM (not active) and the EC50 [8] was > 112 µM (not active).

For CSc1ccccc1C(=O)Nc1nc2ccccc2[nH]1, the EC50 [7] was > 112 µM (not active) and the EC50 [8] was > 112 µM (not active).

With COC(=O)c1ccc(C(=O)OC)c(NC(=O)COC(=O)C23CC4CC(CC(O)(C4)C2)C3)c1 the IC50 [9] was > 79 µM (inactive).

For Clc1ccc(NNc2ccnc3cc(Cl)ccc23)cc1, the IC50 [1] was 34.6 µM (active) and the CC50 [10] was > 40 µM (active).

In the case of COc1ccc(C(C2C(=O)CC(C)(C)CC2=O)C2C(=O)CC(C)(C)CC2=O)cc1CO, the IC50 [11] is reported as 45.8 µM (active).

In the case of NC(=O)CSc1cn(Cc2ccc(F)cc2)c2ccccc12, the EC50 [7] is reported as > 112 µM (not active) and the EC50 [8] is reported as > 112 µM (not active).

For NC(=O)c1ccsc1NC(=O)c1cc(=O)c2ccccc2o1, the IC50 [12] was 11.7 µM (active) and the IC50 [13] was > 66.6 µM (inactive).

With COc1ccc(CCn2c(Br)nc3c2c(=O)[nH]c(=O)n3C)cc1 the IC50 [9] was > 79 µM (inactive).

For Cc1ccc(-c2nnc(CSc3nc(C(C)C)nc4sc(C)c(C)c34)o2)cc1, the EC50 [7] was > 112 µM (not active) and the EC50 [8] was > 112 µM (not active).

For O=C(Nc1nc(-c2ccccc2)cs1)C1CCCN(S(=O)(=O)c2ccccc2)C1 (stereo unspecified), the CC50 [2] was 2.26 µM (active), the EC50 [14] was 2.68 µM (active) and the EC50 [15] was > 30 µM (not active).

For Cc1ccc2c(c1)c1nnc(SCC(=O)Nc3ccccc3C(F)(F)F)nc1n2CC(=O)O, the IC50 [16] was 18.6 µM (active).

In the case of CCC(CC)c1nnc(NC(=O)CCNC(=O)c2ccccc2Cl)s1, the EC50 [7] is reported as > 112 µM (not active) and the EC50 [8] is reported as > 112 µM (not active).

For CN(C)C(=O)C1C2N=C(S)N(c3cccc(Cl)c3)C1(C)Oc1ccc(Cl)cc12 (stereo unspecified), the IC50 [9] was 54.6 µM (inactive).

With O=C(CN1CCN(c2ncc(C(F)(F)F)cc2Cl)CC1)NCCNc1ncc(C(F)(F)F)cc1Cl the AC50 [17] was 5.87 µM (active).

For CCCOc1ccc(/C=C2/C(=O)ON=C2C)cc1OCC, the IC50 [11] was 29 µM (active).

In the case of CCn1c(NCc2cc(Cl)ccc2O)nc2ccccc21, the CC50 [2] is reported as 44.7 µM (active).
